Assay results reported in PubChem BioAssay AID602168 (The Scripps Research Institute Molecular Screening Center, 2012).
Activity calls are given as the source filed them. No rule for the calls is given here.

target: Nuclear receptor coactivator 1 (Homo sapiens) (UniProt Q15788); experiment: NCOA1 reporter inhibition potency – cell-based, luminescence, counter-screen for SRC3 inhibitor project, dose response (AID 602168); conditions: Cell-based SRC1 luciferase reporter
Sequence (Q15788 whole entry, looked up): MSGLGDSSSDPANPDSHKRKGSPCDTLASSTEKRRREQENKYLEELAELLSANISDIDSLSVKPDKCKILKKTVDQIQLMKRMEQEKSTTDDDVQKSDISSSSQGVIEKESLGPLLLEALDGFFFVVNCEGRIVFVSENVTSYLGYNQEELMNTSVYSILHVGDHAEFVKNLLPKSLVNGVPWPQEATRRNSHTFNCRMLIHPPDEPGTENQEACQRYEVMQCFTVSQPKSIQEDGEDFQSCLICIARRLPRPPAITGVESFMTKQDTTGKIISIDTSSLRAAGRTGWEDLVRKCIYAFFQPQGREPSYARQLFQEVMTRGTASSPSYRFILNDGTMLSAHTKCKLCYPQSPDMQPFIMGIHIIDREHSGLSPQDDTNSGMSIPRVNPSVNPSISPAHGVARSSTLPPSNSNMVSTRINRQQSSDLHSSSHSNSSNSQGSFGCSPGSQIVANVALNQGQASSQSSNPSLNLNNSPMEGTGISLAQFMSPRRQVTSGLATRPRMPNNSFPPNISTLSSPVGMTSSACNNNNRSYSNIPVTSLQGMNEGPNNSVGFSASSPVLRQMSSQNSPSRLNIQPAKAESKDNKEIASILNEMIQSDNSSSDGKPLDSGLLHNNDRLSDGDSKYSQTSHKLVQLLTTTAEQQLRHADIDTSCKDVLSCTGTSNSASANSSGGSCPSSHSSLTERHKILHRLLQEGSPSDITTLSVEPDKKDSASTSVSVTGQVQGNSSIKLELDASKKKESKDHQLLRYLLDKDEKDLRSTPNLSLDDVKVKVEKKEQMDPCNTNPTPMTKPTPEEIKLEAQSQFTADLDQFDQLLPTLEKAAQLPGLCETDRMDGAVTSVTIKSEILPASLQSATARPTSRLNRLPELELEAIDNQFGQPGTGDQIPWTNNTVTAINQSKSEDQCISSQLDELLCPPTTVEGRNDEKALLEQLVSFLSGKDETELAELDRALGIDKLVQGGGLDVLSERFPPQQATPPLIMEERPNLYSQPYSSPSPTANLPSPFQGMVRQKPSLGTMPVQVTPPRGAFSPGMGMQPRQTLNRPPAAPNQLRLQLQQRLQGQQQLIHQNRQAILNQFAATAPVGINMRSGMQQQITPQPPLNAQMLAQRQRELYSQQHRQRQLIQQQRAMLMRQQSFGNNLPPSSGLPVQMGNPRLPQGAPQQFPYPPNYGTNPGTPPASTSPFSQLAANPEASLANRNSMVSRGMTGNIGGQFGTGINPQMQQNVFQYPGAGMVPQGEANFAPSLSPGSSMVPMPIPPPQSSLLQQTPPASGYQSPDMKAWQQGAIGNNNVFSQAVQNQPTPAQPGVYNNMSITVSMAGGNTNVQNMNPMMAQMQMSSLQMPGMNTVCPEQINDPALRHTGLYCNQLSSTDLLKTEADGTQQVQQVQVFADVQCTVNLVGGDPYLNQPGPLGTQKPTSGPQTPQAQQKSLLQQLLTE

Compound | IC50
COc1ccc(/C=C2/SC(=S)N(CCC(=O)O)C2=O)cc1 | > 35.9 µM (inactive)
O=C(Nc1ccc(OCC(=O)N2CCOCC2)cc1)c1cncc(Br)c1 | inactive
Nc1nc(CCl)nc(Nc2cccc3ccccc23)n1 | inactive
C=CCn1c(O)c(C(C)=NCc2cc(OC)cc(OC)c2)c(=O)[nH]c1=O | > 35.9 µM (inactive)
O=C(OCc1ccccc1)c1ccc(NCc2cc(O)ccc2O)cc1 | > 12 µM (inactive)
COC(=O)c1cc(S(=O)(=O)NCCc2ccc(Cl)cc2)c[nH]1 | inactive
Cc1ccc(C(=O)Nc2cnc3ccccc3c2)cc1 | inactive
Cc1c(/C(O)=C2/C(=O)C(=O)N(Cc3cccnc3)C2c2ccccn2)cnn1-c1ccccc1 (centres undefined) | > 35.9 µM (inactive)
COc1ccc(CCNC(=O)c2nnn(-c3ccc4c(c3)OCCO4)c2N)cc1OC | > 35.9 µM (inactive)
O=C(Nc1nc2ccccc2s1)C1c2ccccc2Oc2ccccc21 | inactive
Oc1ccc(C=NNc2ccccn2)c(O)c1 | > 35.9 µM (inactive)
CS(=O)(=O)c1ccc(Sc2nc3ccccc3s2)c([N+](=O)[O-])c1 | > 35.9 µM (inactive)
C=CC[n+]1c(-c2ccc(C)cc2)csc1Nc1ccc(NC(C)=O)cc1 | > 35.9 µM (inactive)
COc1ccc(/C=C2\CN(Cc3ccccc3)C/C(=C\c3ccc(OC)c(O)c3)C2=O)cc1O | > 35.9 µM (inactive)
C=C1C(=O)[C@]23C[C@H]1CCC2[C@@]1(C)C(C[C@@H]3O)[C@](C)(C(=O)OC)CC[C@@H]1O (some centres undefined) | inactive
Cc1ccc(N=c2c([N+](=O)[O-])nn(-c3ccc4c(c3)OCCO4)n2O)cc1F | > 35.9 µM (inactive)
Cc1cccc(C)c1NS(=O)(=O)c1ccc(-c2cnc(C3CC3)o2)cc1 | inactive
CCN(c1cccc(C)c1)c1ncnc2nc[nH]c12 | inactive
CCc1nc(N)nc(N)c1-c1ccc(Cl)c([N+](=O)[O-])c1 | 0.603 µM
CCCC(=O)NC(c1ccc(Cl)cc1Cl)c1ccc2cccnc2c1O (centres undefined) | 6.03 µM
COc1ccc(-c2cn[nH]c2-c2ccc(OC)cc2O)cc1 | 8.83 µM
Cc1ncc(CO)c(/C=N/NC(=O)c2cc3c(s2)CCCC3)c1O | inactive
COc1cccc(/C=N/Nc2ccc([N+](=O)[O-])cn2)c1O | > 35.9 µM (inactive)
CN(C)c1ccc(/C=C/c2ccc3ccccc3n2)cc1 | inactive
Nc1ccc(-c2cc3ccccc3oc2=O)cc1 | > 35.9 µM (inactive)

Compound | IC50
Brc1ccc2ncc3ccccc3c2c1 | inactive
O=C(N/N=C/c1cc(Br)c(Br)s1)c1ccncc1 | inactive
COc1cc2c(c(OC)c1OC)-c1ccc(SC)c(=O)cc1C(NC=O)CC2 (centres undefined) | > 35.9 µM (inactive)
CO[C@@]12[C@@H]3N[C@@H]3CN1C1=C(C(=O)C(N)=C(C)C1=O)[C@@H]2COC(N)=O | > 35.8 µM (inactive)
Cc1ccc(C2=NN(C(=O)CCl)C(c3cccs3)C2)o1 (centres undefined) | inactive
CC(=O)NC(c1cc(Cl)c2cccnc2c1O)C(C)C (centres undefined) | 7.94 µM
NS(=O)(=O)c1ccc(Sc2nc3ccccc3s2)c([N+](=O)[O-])c1 | > 35.9 µM (inactive)
O=C(CC(Nc1ccc(Cl)cc1Cl)C(=O)O)c1ccccc1 (centres undefined) | > 35.9 µM (inactive)
O=C(N/N=C\c1ccc([N+](=O)[O-])o1)C1COc2ccccc2O1 (centres undefined) | > 35.9 µM (inactive)
Cc1ccc(-n2c(Cl)c(Cl)nc(Cl)c2=O)cc1 | inactive
CC(C)N(c1ccccc1)c1ccc(NC(=O)CCl)cc1 | > 35.8 µM (inactive)
Cc1cc(-c2nnc(SCC(=O)Nc3ccccc3C(F)(F)F)o2)c(C)n1-c1ccccc1 | > 35.9 µM (inactive)
CCc1ccc(-c2nc(CSCC(=O)NCc3ccco3)c(C)o2)cc1 | > 35.9 µM (inactive)
CC(C)(C)n1ncc2c(=O)n(CC(=O)OCc3ccccc3)cnc21 | > 35.9 µM (inactive)
O=C(CCl)N1N=C(c2ccco2)CC1c1ccco1 (centres undefined) | > 35.9 µM (inactive)
Cc1nc(N)nc(N)c1-c1ccc(Cl)c(Cl)c1 | 5.41 µM
Nc1nccc(-c2ccc(-n3cnc4ccccc43)cc2)n1 | 2.23 µM
CCCc1c(C)nc2ccccc2c1SCCC#N | 9.45 µM
Cc1nc2c(-c3ccc(Cl)cc3)cnn2c(N)c1-c1ccc(F)cc1 | > 35.9 µM (inactive)
O=c1[nH]c(O)c(N=Nc2ccc3c(c2)OCCO3)c(=O)[nH]1 | > 35.9 µM (inactive)
Cc1ccc2occ(/C=N/NC(=O)c3ccccc3Br)c(=O)c2c1 | > 35.9 µM (inactive)
C(=N\Nc1nc2ccccc2[nH]1)/c1cccc2cccnc12 | > 35.9 µM (inactive)
CC(=O)c1cccc(NC(=O)Nc2ccc3c(c2)N(C)C(=O)CS3)c1 | inactive
CCCC(=O)NC(c1ccc2c(c1)OCO2)c1cc(Cl)c2cccnc2c1O (centres undefined) | 7.24 µM
CCCS(=O)(=O)Nc1ccc(Nc2c3ccccc3nc3ccccc23)c(OC)c1 | 0.525 µM

Compound | IC50
CC(C)(C)c1cc(C(=O)N/N=C/c2ccc(O)cc2)n(-c2ccccc2)n1 | > 35.9 µM (inactive)
Cc1cccc(NC(=O)c2cc(Cl)ccc2[N+](=O)[O-])c1 | inactive
CCOc1ccc(CC(=O)Nc2ccc(NC(=O)c3ccco3)cc2)cc1OCC | 4.28 µM
COc1ccc(C)cc1NS(=O)(=O)c1ccc(NC(=O)CN(c2cc([N+](=O)[O-])ccc2C)S(C)(=O)=O)cc1 | inactive
O=C(CCCc1nc(-c2ccccc2Cl)no1)NC1CCCC1 | inactive
COc1ccc(C(C(=O)NC2CCCCC2)N(C(=O)CCl)c2ccc(Cl)cc2)cc1 (centres undefined) | inactive
COc1cc(/C=N/NC(=Nc2ccc(C)cc2)c2nc3ccccc3s2)ccc1O | 8.17 µM
CN(C)c1ccc(CNC(=O)CCNS(=O)(=O)c2cc(Br)cnc2N)cc1 | inactive
COc1ccc2[nH]c(=O)c(CN(CCN3CCCC3)C(=O)Nc3ccccc3Cl)cc2c1 | inactive
CCCNC(=O)c1nnsc1S(=O)(=O)c1ccc(Cl)cc1 | inactive
CC(=O)Nc1ccc(SCC(=O)c2cc(C)n(-c3ccccc3F)c2C)cc1 | > 12 µM (inactive)
COc1ccc(C(C(=O)NC2CCCCC2)N(C(=O)CCl)c2ccc(OC)cc2)cc1 (centres undefined) | inactive
CN(Cc1cnc2nc(N)nc(N)c2n1)c1ccc(C(=O)NC(CCC(=O)O)C(=O)O)cc1 (centres undefined) | > 35.9 µM (inactive)
CCOC(=O)C(C(C)=O)c1c(Br)c(O)c(O)c2c(C(=O)c3ccc(C)cc3)coc12 (centres undefined) | > 35.9 µM (inactive)
C(=N\Nc1ccc2ccccc2n1)/c1ccc2c(c1)OCCO2 | inactive
C=CCOn1c(C)c(C(C)=O)c2c3nonc3ccc21 | 9.06 µM
Cc1cc(C(=O)COC(=O)C2=COCCO2)c(C)n1-c1ccccc1 | inactive
CCn1nc(/C=C/c2ccccc2)nc2c(=O)n(C)c(=O)nc1-2 | > 35.9 µM (inactive)
Clc1ccc(-c2csc3ncnc(NCCN4CCOCC4)c23)cc1 | inactive
CCOC(=O)C(=CNc1ccc(NC2=NCC(C)S2)cc1)C(=O)OCC (centres undefined) | > 35.8 µM (inactive)
Cc1c(Cl)cccc1NC(=O)Nc1ccccc1C(N)=O | > 35.9 µM (inactive)
COc1cc(/C=C(/C(=O)c2cccs2)c2nc3ccccc3[nH]2)cc(OC)c1O | > 35.9 µM (inactive)
O=C(CCl)N(c1ccccc1)C1CCCCC1 | inactive
Cc1cccc(Oc2sc(C(=O)c3ccccc3)c(N)c2C#N)c1 | inactive
